Values quoted from earlier work as cited in patent publication US20200000750A1, “Composition for Treating Acute and Chronic Pain” (priority 2018, published 2020).

Key:
acute attacks of gout = conditions: literature; colchiceine at 5 to 8 mg orally
granulocytopoiesis = conditions: animals and humans; compared with colchicine
humans = conditions: with the doses mentioned
spermatogenesis = conditions: in vivo
[1] = test system: mitosis, spindle formation; conditions: for antimitotic effect (mitotic or spindle poison): literature; for antagonism of colchicine: literature (Benitez et al. 1954)
[2] = literature

In the case of COc1cc2c(c(OC)c1OC)-c1ccc(OC)c(=O)cc1[C@@H](NC(C)=O)CC2 [Colchicine, colchicine], the “anti-gout effect in acute attacks of gout” value (“anti-gout effect” below) (acute attacks of gout) is given as “dramatic relief of acute attacks of gout”.

In the case of CN[C@H]1CCc2cc(OC)c(OC)c(OC)c2-c2ccc(OC)c(=O)cc21 [Desacetylmethylcolchicine], the effect on granulocytopoiesis (granulocytopoiesis) is given as “very depressing effect on granulocytopoiesis, much greater than colchicine”, the alopecia (humans) is given as “temporary total alopecia” and the loss of feathers (birds) is given as “loss of feathers”. For the same compound, the effect on spermatogenesis (spermatogenesis) was “Impairment of spermatogenesis”.

In the case of COc1cc2c(c(OC)c1OC)-c1ccc(=O)c(OC)cc1[C@@H](NC(C)=O)CC2 [Iso-colchicine], the “anti-gout effect” value (acute attacks of gout) is given as “little or no anti-gout effects”, the “antimitotic effect (mitotic or spindle poison)” value [1] is given as “relatively ineffective as mitotic poisons” and the toxicity [2] is given as “relatively nontoxic”.

In the case of O=C(CCc1ccc(O)cc1)c1c(O)cc(O)cc1O[C@@H]1O[C@H](CO)[C@@H](O)[C@H](O)[C@H]1O [Phlorizine], the “increase of the antimitotic effect of colchicine (synergist)” value ([1]; literature (H. R. Littre, et al. 1951)) is given as “eight times”.

In the case of COc1cc2c(c(OC)c1OC)-c1ccc(=O)c(O)cc1[C@@H](NC(C)=O)CC2 [colchiceine], the “anti-gout effect” value (acute attacks of gout) is given as “no anti-gout effects”, the “antimitotic effect (mitotic or spindle poison)” value [1] is given as “very weak antimitotic” and the diarrheal effect [2] is given as “very weak”.

In the case of COc1c(O[C@@H]2O[C@H](CO)[C@@H](O)[C@H](O)[C@H]2O)cc2c(c1OC)-c1ccc(OC)c(=O)cc1[C@@H](NC(C)=O)CC2 [colchicoside], the “anti-gout effect” value (acute attacks of gout) is listed as “equivocal results”.

In the case of O[C@H]1[C@H](O)[C@@H](O)[C@H](O)[C@@H](O)[C@H]1O [mesoinosital], the antagonism of colchicine [1] is given as “potent antagonist of colchicine”.

In the case of O=c1cccccc1O [tropolone], the “antimitotic effect (mitotic or spindle poison)” value [1] is given as “not a spindle poison but rather favors the formation of the spindle” and the antagonism of colchicine [1] is given as “potent antagonist of colchicine”.
